Biological target: T1, human full-length recombinant PKC βII (Homo sapiens, UniProt P05771)
T1 construct: Active human full-length recombinant PKC βII; purchased Invitrogen GmbH, Darmstadt, Germany
Experiment: Determination of PKC βII inhibition (Caliper mobility-shift kinase assay, Fluorescein-RFARKGSLRQKNV peptide substrate)
Assay type: biochemical
Conditions: example compounds at a final concentration of 1.14 μM (±0.15 μM)
Outline: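 Full-length PKC βII (30 ng/ml in pre-dilution) with PS/DAG/Ca2+ activators, pH 7.4; fluorescein peptide and ATP at 3 μM and 120 μM before mixing. Reaction ran 60 min at 32 °C, was EDTA-stopped, and was read by mobility shift. % inhibition came from product/(substrate+product) peak heights, tested at 1.14 μM final.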

T1 sequence (P05771 1-673 isoform P05771-2): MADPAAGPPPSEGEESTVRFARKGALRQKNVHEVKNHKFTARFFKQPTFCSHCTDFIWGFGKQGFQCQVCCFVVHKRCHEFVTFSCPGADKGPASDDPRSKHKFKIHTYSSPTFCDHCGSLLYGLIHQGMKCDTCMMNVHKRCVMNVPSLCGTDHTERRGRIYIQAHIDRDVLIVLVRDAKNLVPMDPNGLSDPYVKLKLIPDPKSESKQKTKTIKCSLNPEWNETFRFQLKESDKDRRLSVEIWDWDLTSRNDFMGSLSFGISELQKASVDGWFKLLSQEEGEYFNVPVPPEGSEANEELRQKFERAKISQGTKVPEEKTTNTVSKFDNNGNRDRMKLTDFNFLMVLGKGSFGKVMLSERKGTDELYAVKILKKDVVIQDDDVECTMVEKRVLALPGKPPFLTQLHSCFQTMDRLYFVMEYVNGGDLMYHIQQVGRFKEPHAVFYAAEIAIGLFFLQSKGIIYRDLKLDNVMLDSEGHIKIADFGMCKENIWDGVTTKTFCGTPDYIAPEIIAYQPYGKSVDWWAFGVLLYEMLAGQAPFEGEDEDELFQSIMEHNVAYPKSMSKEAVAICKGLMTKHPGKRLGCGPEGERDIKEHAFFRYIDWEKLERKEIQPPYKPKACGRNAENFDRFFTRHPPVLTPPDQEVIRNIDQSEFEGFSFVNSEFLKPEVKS

Row | Structure (SMILES) | inhibition at 1.14 µM [%]
1 | Cc1n[nH]c2nc(-c3ccc(O)c(F)c3)cc(C(=O)N3CCC(N)C3)c12 (stereo not drawn) [Example 336, (3-Amino-pyrrolidin-1-yl)-[6-(3-fluoro-4-hydroxy-phenyl)-3-methyl-1H-pyrazolo[3,4-b]pyridin-4-yl]-methanone] | 73
2 | Cc1n[nH]c2nc(-c3ccc(O)c(F)c3)cc(C(=O)N3CCNC[C@@H]3C(C)C)c12 [Example 320, [6-(3-Fluoro-4-hydroxy-phenyl)-3-methyl-1H-pyrazolo[3,4-b]pyridin-4-yl]-((S)-2-isopropyl-piperazin-1-yl)-methanone] | 72
3 | Cc1n[nH]c2nc(-c3ccc(O)cc3)cc(C(=O)NC(CCN)c3ccccc3)c12 (stereo not drawn) [Example 131, 6-(4-Hydroxy-phenyl)-3-methyl-1H-pyrazolo[3,4-b]pyridine-4-carboxylic acid (3-amino-1-phenyl-propyl)-amide] | 68
4 | Cc1n[nH]c2nc(-c3ccc(O)cc3)cc(C(=O)NC3(C)CCNCC3)c12 [Example 41, 6-(4-Hydroxy-phenyl)-3-methyl-1H-pyrazolo[3,4-b]pyridine-4-carboxylic acid (4-methyl-piperidin-4-yl)-amide] | 95
5 | Cc1n[nH]c2nc(-c3ccc(O)c(F)c3)cc(C(=O)NCC(C)(C)CN)c12 [Example 363, 6-(3-Fluoro-4-hydroxy-phenyl)-3-methyl-1H-pyrazolo[3,4-b]pyridine-4-carboxylic acid (3-amino-2,2-dimethyl-propyl)-amide] | 72
6 | COc1ccc(C2CNCCN2C(=O)c2cc(-c3ccc(O)cc3)nc3[nH]nc(C)c23)cc1 (stereo not drawn) [Example 69, [6-(4-Hydroxy-phenyl)-3-methyl-1H-pyrazolo[3,4-b]pyridin-4-yl]-[2-(4-methoxy-phenyl)-piperazin-1-yl]-methanone] | 100
7 | COC(=O)[C@H]1CNCCN1C(=O)c1cc(-c2ccc(O)c(F)c2)nc2[nH]nc(C)c12 [Example 328, (R)-1-[6-(3-Fluoro-4-hydroxy-phenyl)-3-methyl-1H-pyrazolo[3,4-b]pyridine-4-carbonyl]-piperazine-2-carboxylic acid methyl ester] | 80
8 | Cc1n[nH]c2nc(-c3ccc(O)cc3)cc(C(=O)NCC3(N)CCCCCC3)c12 [Example 116, 6-(4-Hydroxy-phenyl)-3-methyl-1H-pyrazolo[3,4-b]pyridine-4-carboxylic acid (1-amino-cycloheptylmethyl)-amide] | 76
9 | Cc1n[nH]c2nc(-c3ccc(O)cc3)cc(C(=O)N3CC[C@H](N)C3)c12 [Example 246, ((S)-3-Amino-pyrrolidin-1-yl)-[6-(4-hydroxy-phenyl)-3-methyl-1H-pyrazolo[3,4-b]pyridin-4-yl]-methanone] | 88
10 | Cc1n[nH]c2nc(-c3ccc(O)cc3)cc(C(=O)NCCC3CCCN3C)c12 (stereo not drawn) [Example 218, 6-(4-Hydroxy-phenyl)-3-methyl-1H-pyrazolo[3,4-b]pyridine-4-carboxylic acid [2-(1-methyl-pyrrolidin-2-yl)-ethyl]-amide] | 85
11 | Cc1n[nH]c2nc(-c3ccc(O)cc3F)cc(C(=O)N3CCNCC34CCC4)c12 [Example 439, (5,8-Diaza-spiro[3.5]non-5-yl)-[6-(2-fluoro-4-hydroxy-phenyl)-3-methyl-1H-pyrazolo[3,4-b]pyridin-4-yl]-methanone] | 99
12 | CCC[C@@H]1CN(C(=O)c2cc(-c3ccc(O)cc3F)nc3[nH]nc(C)c23)CCN1 [Example 420, [6-(2-Fluoro-4-hydroxy-phenyl)-3-methyl-1H-pyrazolo[3,4-b]pyridin-4-yl]-((R)-3-propyl-piperazin-1-yl)-methanone] | 80
13 | COC(=O)CC1CNCCN1C(=O)c1cc(-c2ccc(O)cc2)nc2[nH]nc(C)c12 (stereo not drawn) [Example 197, {1-[6-(4-Hydroxy-phenyl)-3-methyl-1H-pyrazolo[3,4-b]pyridine-4-carbonyl]-piperazin-2-yl}-acetic acid methyl ester] | 95
14 | Cc1n[nH]c2nc(-c3ccc(O)cc3)cc(C(=O)N3CCNCC3)c12 [Example 53, [6-(4-Hydroxy-phenyl)-3-methyl-1H-pyrazolo[3,4-b]pyridin-4-yl]-piperazin-1-yl-methanone] | 92
15 | Cc1n[nH]c2nc(-c3ccc(O)cc3)cc(C(=O)N3CCNCC3c3ccccc3C(F)(F)F)c12 (stereo not drawn) [Example 93, [6-(4-Hydroxy-phenyl)-3-methyl-1H-pyrazolo[3,4-b]pyridin-4-yl]-[2-(2-trifluoromethyl-phenyl)-piperazin-1-yl]-methanone] | 79
16 | Cc1n[nH]c2nc(-c3ccc(O)cc3)cc(C(=O)NC3CCCNC3)c12 (stereo not drawn) [Example 242, 6-(4-Hydroxy-phenyl)-3-methyl-1H-pyrazolo[3,4-b]pyridine-4-carboxylic acid piperidin-3-ylamide] | 87
17 | Cc1n[nH]c2nc(-c3ccc(O)c(F)c3)cc(C(=O)NCC3CCCCN3)c12 (stereo not drawn) [Example 367, 6-(3-Fluoro-4-hydroxy-phenyl)-3-methyl-1H-pyrazolo[3,4-b]pyridine-4-carboxylic acid (piperidin-2-ylmethyl)-amide] | 36
18 | CCCC[C@H]1CN(C(=O)c2cc(-c3ccc(O)c(F)c3)nc3[nH]nc(C)c23)CCN1 [Example 294, ((S)-3-Butyl-piperazin-1-yl)-[6-(3-fluoro-4-hydroxy-phenyl)-3-methyl-1H-pyrazolo[3,4-b]pyridin-4-yl]-methanone] | 85
19 | CCc1n[nH]c2nc(-c3ccc(O)cc3)cc(C(=O)N3CCNC(C)C3)c12 (stereo not drawn) [Example 165, [3-Ethyl-6-(4-hydroxy-phenyl)-1H-pyrazolo[3,4-b]pyridin-4-yl]-(3-methyl-piperazin-1-yl)-methanone] | 92
20 | Cc1n[nH]c2nc(-c3ccc(O)cc3)cc(C(=O)N[C@@H]3CCCNC3)c12 [Example 222, 6-(4-Hydroxy-phenyl)-3-methyl-1H-pyrazolo[3,4-b]pyridine-4-carboxylic acid (R)-piperidin-3-ylamide] | 97
21 | CNC1CCN(C(=O)c2cc(-c3ccc(O)cc3)nc3[nH]nc(C)c23)CC1 [Example 109, [6-(4-Hydroxy-phenyl)-3-methyl-1H-pyrazolo[3,4-b]pyridin-4-yl]-(4-methylamino-piperidin-1-yl)-methanone] | 88
22 | Cc1n[nH]c2nc(-c3ccc(O)cc3)cc(C(=O)N3CCC4(CCNCC4)C3)c12 [Example 260, (2,8-Diaza-spiro[4.5]dec-2-yl)-[6-(4-hydroxy-phenyl)-3-methyl-1H-pyrazolo[3,4-b]pyridin-4-yl]-methanone] | 78
23 | Cc1n[nH]c2nc(-c3ccc(O)cc3)cc(C(=O)N3CCC4(CCNC4)CC3)c12 [Example 257, (2,8-Diaza-spiro[4.5]dec-8-yl)-[6-(4-hydroxy-phenyl)-3-methyl-1H-pyrazolo[3,4-b]pyridin-4-yl]-methanone] | 82
24 | CCc1n[nH]c2nc(-c3ccc(O)cc3)cc(C(=O)N3C[C@]4(C)CN(C)C[C@](C)(C3)C4O)c12 (stereo partly drawn) [Example 179, [3-Ethyl-6-(4-hydroxy-phenyl)-1H-pyrazolo[3,4-b]pyridin-4-yl]-((1S,5R)-9-hydroxy-1,5,7-trimethyl-3,7-diaza-bicyclo[3.3.1]non-3-yl)-methanone] | 55

Source: patent publication US8686150B2 (Sanofi, priority 2011, dated 2014)
